The values that follow come from patent US9078811B2, “Methods of increasing oral bioavailability of tetracyclines” (Paratek Pharmaceuticals, Inc., priority 2006, dated 2015).

Structures are written as SMILES. Structures can show the parent of a compound that is named as a salt.

What all share (format): in vivo
The nature of data set [1]: PK following intravenous administration in rats. To be noted: for AUC: IV 1 mg/kg, jugular vein. As to the method:
The bioavailability of 9-[(2,2, dimethyl-propyl amino)-methyl]-minocycline following intravenous administration in rats was studied. The freebase (“FB”) and the HCl salt (“HCl salt”) of 9-[(2,2, dimethyl-propyl amino)-methyl]-minocycline were used. All formulations were prepared fresh on the day of the experiment. Samples for pharmacokinetic analysis were collected from a cannula within the carotid artery of the rats. Intravenous doses of (1 mg/kg) were administered to rats through cannulas in either the jugular or portal veins.

Data set [2] can be described thus: PK and oral bioavailability following dosing via oral gavage in rats. Here is the method: Solutions of 9-[(2,2, dimethyl-propyl amino)-methyl]-minocycline freebase (5 mg/kg [2 ml/kg]) were administered by oral gavage. The solutions were composed of 9-[(2,2, dimethyl-propyl amino)-methyl]-minocycline alone or in combination with bioavailability enhancing agents to assess their effect on oral bioavailability.
The % F was calculated using the IV data presented in Example 1 and the equation: % F=Oral AUC/IV AUC.

Data set [3] in a line: PK and bioavailability following intra-duodenal administration in rats. As to the method:
In order to measure the effect of delivering 9-[(2,2, dimethyl-propyl amino)-methyl]-minocycline directly into the duodenum, rats bearing duodenal cannulas were administered 9-[(2,2, dimethyl-propyl amino)-methyl]-minocycline freebase alone or in combination with bioavailability enhancing agents to assess their effects on bioavailability.

Data set [4] in a line: Effects of permeability enhancers on bioavailability, oral gavage in rats. Here is the method:
As a control, a solution of 9-[(2,2, dimethyl-propyl amino)-methyl]-minocycline freebase (“freebase”) was prepared using sterile water and the final pH was adjusted to ˜5. To prepare the sodium caprate (sodium decanoate, a compound that increases paracellular permeability) containing solution, the freebase was first dissolved in sterile water and sodium caprate was then added to a final concentration of 13 mM. The resulting solution was administered to rats via oral gavage without pH adjustment. The solution of freebase containing 1.5% chitosan was then prepared by first dissolving the freebase in sterile water and then adjusting the pH of this solution (pH ˜8.1) to a final pH ˜5 using 1N HCl. Chitosan was then added to a final concentration of 1.5% and the resulting solution was administered to rats via oral gavage as a slurry.

[5] abbreviates: rats with duodenal cannulas, intra-duodenal administration.

With `CN(C)c1cc(CNCC(C)(C)C)c(O)c2c1C[C@H]1C[C@H]3[C@H](N(C)C)C(O)=C(C(N)=O)C(=O)[C@@]3(O)C(O)=C1C2=O` [FB, 9-[(2,2, dimethyl-propylamino)-methyl]-minocycline], the AUC in data set [1] (fasted, 1 mg/kg) was 0.57 (0.50; 0.63) ug*hr/mL; in data set [2] (oral gavage, 5 mg/kg [2 ml/kg] solution), 330 ± 120 ng·h/mL; in data set [3] (setting [5]) it was 440 ± 150 ng·h/mL; in data set [4], 330 ± 120 ng·h/mL. The “differences in pharmacokinetic parameters, freebase vs HCl salt” value in data set [1] (IV, fasted animals) is given as “no significant differences”. In data set [1] (after IV dosing), the “effects of first pass hepatic elimination on pharmacokinetics” value is recorded as “no significant effects”. Further, in data set [2] (oral gavage 5 mg/kg, calculated using the IV data of Example 1), the “% F (oral bioavailability)” value was 11.7 ± 4.1%. Besides, the figures for the “% F” value in data set [3] (setting [5]) and in data set [4] were 15.4 ± 5.2% and 11.7 ± 4.1%, respectively. Also, the “change in AUC when administered directly to the duodenum” value in data set [3] (rats, intra-duodenal) is listed as “significant increase in AUC”.

With `CN(C)c1cc(CNCC(C)(C)C)c(O)c2c1C[C@H]1C[C@H]3[C@H](N(C)C)C(O)=C(C(N)=O)C(=O)[C@@]3(O)C(O)=C1C2=O` [HCl salt, 9-[(2,2, dimethyl-propylamino)-methyl]-minocycline], the AUC in data set [1] (fasted, 1 mg/kg) is given as 0.59 (0.45; 0.73) ug*hr/mL. Besides, the AUC in data set [1] (fed) came to 0.46 ± 0.04 µg·h/mL. In data set [1] (IV, fasted animals), the “differences in pharmacokinetic parameters, freebase vs HCl salt” value is recorded as “no significant differences”; the “total exposure (AUC) and clearance, portal vein vs jugular vein” value is recorded as “equal”. For the same compound, in data set [1] (IV, fed vs fasted), the “tendency for higher clearance in a fed group” value was around 22%.
